The values below come from patent publication US20140348880A1, “Ortho-Aminothiophenol Compounds and Uses Thereof” (Cape Breton University, priority 2013, published 2014).

Where two headings read alike, the source gives them in different places.

A short description of assay [1]: DPPH antioxidant activity test. Conditions: 50 μg compound in 3 mL methanol; DPPH 150 μL 1 mM; 30 min, 25 °C; absorbance 517 nm. As to the method: In addition to antibacterial properties, antioxidant activity was assessed in the compounds of Formula I and II and metal complexes thereof as antioxidant compounds play an important role in remediating the toxic effects of reactive oxygen species and other free radicals. The main characteristic of an antioxidant compound is its ability to trap free radicals. Highly reactive free radicals and oxygen species are present in biological systems from a wide variety of sources. Free radical damage is known to occur during bacterial and other microbial infections. Free radicals are produced by cells of the immune system during an active infection, and generally as a result of the inflammatory processes.
DPPH (2,2-diphenyl-1-picryl-hydrazyl, 150 μL, 1 mM solution in methanol) was added to 3 mL methanol in a cuvette (0.5 in diameter) and UV-vis absorption recorded at 517 nm for baseline reading. In a cuvette, DPPH (150 μL, 1 mM solution in methanol) was added to a solution containing compound in 3 mL methanol. The reaction was allowed to stir at 25±1° C. for 30 min under exclusion of light. Absorbance was recorded at 517 nm against reference cuvette filled with methanol.

The test system of a further assay is Bacillus cereus. The assay can be described thus: In vitro disc diffusion assay, ZOI (Example 3). Type of assay: cell-based. Conditions: 6 mm diameter discs; for Zone of Inhibition: Bacillus cereus; for ZOI: B. cereus. On the procedure: (§1) Sterile assay discs (6 mm diameter) were obtained from VWR Whatman and antibiotic assay discs (6 mm diameter) containing getamicin (10 μg/disc) and the combination drug sulfamethoxazole 23.75 μg/disc and trimethoprim 1.25 μg/disc were obtained from Becton, Dickinson and Company (USA). Dimethyl sulfoxide (DMSO) for microbial experiments was BioReagent™ grade and was purchased from Sigma-Aldrich. The nutrient broth and Müller-Hinton agar was purchased from Becton, Dickinson and Company (USA). Bacillus cereus, Pseudomonas aeruginosa (#27853), Klebsiella pneumonia (#13883), Proteus vulgaris (#13315), Staphylococcus aureus (#25923) and Escherichia coli (#25922) strains were obtained from the American Type Culture Collection (ATCC). All materials in contact with antimicrobial matter was treated for 40 min at 121° C. and 20 psi in a biohazard autoclave bag prior to waste disposing or washing. McFarland turbity standards containing barium sulfate were obtained from bioMérieux.
(§2) The growth medium was prepared by addition of Müller-Hinton agar (38 g) to 1 L distilled water under vigorous stirring and boiled for 10 min until complete dissolution. After cooling to 25° C., the pH value of the medium was 7.3±0.1. The medium was sterilized in an autoclave at 121° C. for 15 min at 20 psi, cooled to 45-50° C. and dispended into sterile Petri dishes on a leveled, horizontal surface to give uniform depth. Stock solutions of the microorganisms were incubated at 37° C. for 24 h and the turbidity of the microbial colonies were adjusted visually with sterile saline (0.85% w/v NaCl) to 0.5 McFarland standards. Within 15 min after adjusting the turbidity of the suspensions, the Petri dishes were inoculated using sterile cotton buds. The prepared antibiotic assay discs were placed on the surface of the seeded Müller-Hinton agar using flame sterilized forceps.
(§3) Stock solutions of compounds and the Cu complexed compounds were made in DMSO and were micropipetted onto the discs for 25 to 200 μg compound/disc. The discs were dried at ambient temperature for 30-50 min before placement onto the seeded Petri dishes which were then incubated at 37° C. for 24 h. Averaged inhibition zone measurements (mm) have an accuracy of ±0.5 mm; adjacent overlapping ZOI were determined using radii measurements.
(In agar diffusion tests the substance spreads into inoculated agar from a disc or well.)

Assay [2] relates to Staphylococcus aureus (#25923). The assay can be described thus: In vitro disc diffusion assay, ZOI (Example 3). Type of assay: cell-based. Conditions: 6 mm diameter discs; for Zone of Inhibition: Staphylococcus aureus; for ZOI: S. aureus. On the procedure: as §1, §2, §3
The next assay has as its system B. cereus. The assay can be described thus: Disc diffusion zone of inhibition (Example 2). Type of assay: cell-based, Bacillus cereus. Conditions: Bacillus cereus; for zone of inhibition at 200 µg/disc: 200 μg/disc. On the procedure: as §2, with “turbidity of these microbial colony” for “turbidity of the microbial colonies”, “these microbial colony were adjusted” for “the microbial colonies were adjusted”, “0.5 McFarland standards (bioMerieux, SA (France) they are made from barium sulfate (BaSO4). Within 15” for “0.5 McFarland standards. Within 15”
(§4) Stock solutions of compounds of Formula I, Ia, Ib and Formula II, IIa, pharmaceutically acceptable salts thereof, and metal complexes thereof were made in DMSO and were micropipetted onto the discs for 25 to 200 μg/disc. The discs were dried at ambient temperature for 30-50 min before placement onto the seeded Petri dishes which were then incubated at 37° C. for 24 h. Averaged inhibition zone diameters measurements (mm) have an accuracy of ±0.5 mm; adjacent overlapping ZOI were determined using radii measurements. Antibiotic disc like (sulfamethoxazole 23.75 μg trimethoprim 1.25 μg)/disc, Gentamicin 10 μg/disc and DMSO were used as positive and negative standards (control).
(§5) Antimicrobial test was carried out to evaluate the efficacy of compounds of Formula I, Ia, Ib and Formula II, IIa, pharmaceutically acceptable salts thereof, and metal complexes thereof, as well as control tests with control compounds, against six major pathogenic bacteria namely Bacillus cereus, Pseudomonas aeruginosa, Klebsiella pneumonia, Proteus vulgaris, Staphylococcus aureus and Escherichia coli.

Another assay relates to S. aureus. The assay can be described thus: Disc diffusion zone of inhibition (Example 2). Type of assay: cell-based, Staphylococcus aureus. Conditions: Staphylococcus aureus. As to the method:
as §2, with “turbidity of these microbial colony” for “turbidity of the microbial colonies”, “these microbial colony were adjusted” for “the microbial colonies were adjusted”, “0.5 McFarland standards (bioMerieux, SA (France) they are made from barium sulfate (BaSO4). Within 15” for “0.5 McFarland standards. Within 15”
as §4, §5

Another assay has as its system K. pnemonia. The assay can be described thus: Disc diffusion zone of inhibition (Example 2). Type of assay: cell-based, Klebsiella pneumonia. Conditions: Klebsiella pneumoniae, 200 μg/disc. On the procedure:
as §2, with “turbidity of these microbial colony” for “turbidity of the microbial colonies”, “these microbial colony were adjusted” for “the microbial colonies were adjusted”, “0.5 McFarland standards (bioMerieux, SA (France) they are made from barium sulfate (BaSO4). Within 15” for “0.5 McFarland standards. Within 15”
as §4, §5

The test system of a further assay is E. coli. As to the kind of experiment: Disc diffusion zone of inhibition (Example 2). Type of assay: cell-based, Escherichia coli. Conditions: Escherichia coli, 200 μg/disc. As to the method: as §2, with “turbidity of these microbial colony” for “turbidity of the microbial colonies”, “these microbial colony were adjusted” for “the microbial colonies were adjusted”, “0.5 McFarland standards (bioMerieux, SA (France) they are made from barium sulfate (BaSO4). Within 15” for “0.5 McFarland standards. Within 15”
as §4, §5

The test system of the next assay is P. vulgaris. The assay can be described thus: Disc diffusion zone of inhibition (Example 2). Type of assay: cell-based, Proteus vulgaris. Conditions: Proteus vulgaris, 200 μg/disc. As to the method:
as §2, with “turbidity of these microbial colony” for “turbidity of the microbial colonies”, “these microbial colony were adjusted” for “the microbial colonies were adjusted”, “0.5 McFarland standards (bioMerieux, SA (France) they are made from barium sulfate (BaSO4). Within 15” for “0.5 McFarland standards. Within 15”
as §4, §5

Another assay relates to P. aeruginosa. The assay can be described thus: Disc diffusion zone of inhibition (Example 2). Format: cell-based, Pseudomonas aeruginosa. Conditions: Pseudomonas aeruginosa, 200 μg/disc. On the procedure: as §2, with “turbidity of these microbial colony” for “turbidity of the microbial colonies”, “these microbial colony were adjusted” for “the microbial colonies were adjusted”, “0.5 McFarland standards (bioMerieux, SA (France) they are made from barium sulfate (BaSO4). Within 15” for “0.5 McFarland standards. Within 15”
as §4, §5

[3] abbreviates: S. aureus, 200 μg/disc, read-out: Zone of inhibition.

Take `CC(=O)[O-].CC(=O)[O-].Nc1ccccc1SCc1ccccc1CSc1ccccc1N.[Cu+2]` [α,α′-bis((o-aminophenyl)thio)-ortho-xylene-copper (II) acetate]: in [1], the “% Antiox-Act” value is 63.5%.

With “2-(methylthio)-N-(2-pyridylmethylene)-benzenamine copper (I) bromide [ECPP-141]”, the “Zone of Inhibition” value is recorded as 0 mm in the assay on Bacillus cereus (6.25 μg Cu/disc); 0 mm in the assay with Bacillus cereus (12.5 μg Cu/disc); 2 mm in the assay with Bacillus cereus (25 μg Cu/disc); 0.5 mm in [2] (6.25 μg Cu/disc); 2 mm in assay [2] (12.5 μg Cu/disc); 5 mm in assay [2] (25 μg Cu/disc).

As to `Nc1ccccc1SCc1ccc(CSc2ccccc2N)cc1` [Compound L1], the ZOI is 1.5 mm in the assay on Bacillus cereus (50 μg/disc); 5 mm in the assay with Bacillus cereus (100 μg/disc); 6.3 mm with Bacillus cereus (200 μg/disc); 2.5 mm in [2] (50 μg/disc); 3.5 mm in assay [2] (100 μg/disc); 5.5 mm in [2] (200 μg/disc).

One may read the zone of inhibition as the extent of the growth-free halo in a diffusion test. Consider `C(=N\c1ccccc1SCc1ccccc1)/c1ccccn1` [N-(2-pyridinylmethylidene) S-benzyl-ortho-aminothiophenol], for which the zone of inhibition at 75 µg/disc in the assay with B. cereus (75 μg/disc) is 7 mm; in the assay with S. aureus (S. aureus, 75 μg/disc), 11 mm. Also, the “% Antiox-Act” value in assay [1] came out at 65.8%.

As for `C(=N\c1ccccc1SCc1ccccc1)/c1ccccn1` [Compound L3], the ZOI in the assay on Bacillus cereus (50 μg/disc) was determined as 0 mm; in the assay on Bacillus cereus (75 μg/disc), 0.5 mm; in [2] (50 μg/disc), 0 mm; in [2] (75 μg/disc), 2.5 mm.

Turning to “2-(methylthio)-N-(2-pyridylmethylene)-benzenamine copper (II) bromide [ECPP-145]”, the “Zone of Inhibition” value worked out at 0 mm in the assay on Bacillus cereus (6.25 μg Cu/disc); 0 mm in the assay on Bacillus cereus (12.5 μg Cu/disc); 0.5 mm with Bacillus cereus (25 μg Cu/disc); 0 mm in [2] (6.25 μg Cu/disc); 1 mm in assay [2] (12.5 μg Cu/disc); 4 mm in assay [2] (25 μg Cu/disc).

In the case of `Nc1ccccc1SCc1ccc(CSc2ccccc2N)cc1` [α,α′-bis((o-aminophenyl)thio)-para-xylene], the zone of inhibition at 50 µg/disc in the assay with B. cereus (50 μg/disc) came to 9 mm; in the assay with S. aureus (S. aureus, 50 μg/disc), 11 mm. Moreover, the zone of inhibition at 100 µg/disc stood at 16 mm in the assay on B. cereus (100 μg/disc) and 13 mm in the assay with S. aureus (S. aureus, 100 μg/disc). Also, the zone of inhibition at 200 µg/disc with B. cereus is 19 mm; in the assay on S. aureus (setting [3]), 17 mm. Moreover, the “% Antiox-Act” value in [1] turned out to be 65.4%.

With `Nc1ccccc1SCc1ccccc1CSc1ccccc1N` [Compound L2], the values for the ZOI (with Bacillus cereus (200 μg/disc); in assay [2] (200 μg/disc)) were 2 mm and 1.5 mm, respectively.

For “2-(methylthio)-N-(2-phenylmethylene)-benzenamine copper (II) bromide [ECPP-167]”, the “Zone of Inhibition” value in the assay on Bacillus cereus (6.25 μg Cu/disc) is 0 mm; in the assay on Bacillus cereus (12.5 μg Cu/disc), 1 mm; in the assay with Bacillus cereus (25 μg Cu/disc) it was 2 mm; in assay [2] (6.25 μg Cu/disc), 4 mm; in [2] (12.5 μg Cu/disc), 5 mm; in assay [2] (25 μg Cu/disc), 9 mm.

On to `O=Cc1cccnc1` [3-pyridine carboxaldehyde], for which the zone of inhibition at 200 µg/disc with K. pnemonia turned out to be 22 mm; in the assay on B. cereus it was 27 mm; with S. aureus (setting [3]) it was 32 mm; with E. coli, 24 mm; in the assay with P. vulgaris, 21 mm; with P. aeruginosa, 23 mm.

`C(=N\c1ccccc1SCc1ccccc1CSc1ccccc1/N=C/c1ccccn1)/c1ccccn1` [Bis [N,N′-(2-pyridinyl methylidene)]α,α′-bis((o-aminophenyl)thio)-ortho-xylene]: the zone of inhibition at 200 µg/disc in the assay with B. cereus and in the assay on S. aureus (setting [3]) was 7 mm each time. Also, in assay [1], the “% Antiox-Act” value is 61.3%.

In the case of “2-(methylthio)-N-(2-thienylmethylene)-benzenamine copper (II) bromide [ECPP-129]”, the “Zone of Inhibition” value in the assay on Bacillus cereus (6.25 μg Cu/disc) is 0 mm; with Bacillus cereus (12.5 μg Cu/disc), 0.5 mm; in the assay with Bacillus cereus (25 μg Cu/disc), 9 mm; in [2] (6.25 μg Cu/disc) it was 5 mm; in assay [2] (12.5 μg Cu/disc) it was 7 mm; in [2] (25 μg Cu/disc) it was 10 mm.

For the compound `C(=N\c1ccccc1SCc1ccccc1CSc1ccccc1/N=C/c1ccccn1)/c1ccccn1` [Compound L4], the ZOI (in the assay with Bacillus cereus (200 μg/disc); in [2] (200 μg/disc)) was 0.5 mm throughout.

With `Nc1ccccc1SCc1ccccc1CSc1ccccc1N.[Cl][Cu][Cl]` [α,α′-bis((o-aminophenyl)thio)-ortho-xylene-copper (II) chloride], the “% Antiox-Act” value in assay [1] is on record as 56.1%.

Regarding `Nc1ccccc1SCc1ccccc1CSc1ccccc1N` [α,α′-bis((o-aminophenyl)thio)-ortho-xylene], the zone of inhibition at 200 µg/disc came out at 8 mm in the assay with B. cereus and 7 mm in the assay on S. aureus. Besides, the “% Antiox-Act” value in assay [1] is recorded as 60.8%.

Turning to “2-(methylthio)-N-(2-pyridylmethylene)-benzenamine copper (I) iodide [ECPP-143]”, the “Zone of Inhibition” value in [2] (6.25 μg Cu/disc) was found to be 0 mm; in assay [2] (12.5 μg Cu/disc), 0 mm; in assay [2] (25 μg Cu/disc), 1 mm.

Consider `O=Cc1ccncc1` [4-pyridine carboxaldehyde], for which the zone of inhibition at 200 µg/disc is 26 mm in the assay on K. pnemonia; 29 mm in the assay with B. cereus; 30 mm in the assay on S. aureus (setting [3]); 25 mm in the assay with E. coli; 25 mm with P. vulgaris; 27 mm in the assay with P. aeruginosa.
